This assay has as its target T1, Nuclear factor erythroid 2-related factor 2 (Mus musculus, UniProt Q60795).
T1 sequence (Q60795 whole entry): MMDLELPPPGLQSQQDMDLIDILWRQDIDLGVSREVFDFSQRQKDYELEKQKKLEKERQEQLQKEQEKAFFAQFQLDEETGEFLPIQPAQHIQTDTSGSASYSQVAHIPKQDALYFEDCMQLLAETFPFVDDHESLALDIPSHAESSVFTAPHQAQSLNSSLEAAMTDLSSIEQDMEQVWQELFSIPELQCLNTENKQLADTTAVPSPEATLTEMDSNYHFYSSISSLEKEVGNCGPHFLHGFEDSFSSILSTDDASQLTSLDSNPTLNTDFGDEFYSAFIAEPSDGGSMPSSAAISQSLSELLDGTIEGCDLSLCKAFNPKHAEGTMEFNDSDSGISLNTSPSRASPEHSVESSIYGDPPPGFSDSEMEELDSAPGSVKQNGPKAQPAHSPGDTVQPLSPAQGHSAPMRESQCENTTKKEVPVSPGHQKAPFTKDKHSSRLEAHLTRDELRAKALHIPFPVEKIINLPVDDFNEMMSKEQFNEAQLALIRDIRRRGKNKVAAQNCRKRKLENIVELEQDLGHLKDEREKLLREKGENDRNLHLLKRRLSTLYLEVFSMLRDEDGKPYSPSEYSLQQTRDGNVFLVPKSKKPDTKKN
Put plainly: Inhibition of Nrf2 in mouse MYC-3T3-ARELUC cells harboring a stably integrated ARE by firefly luciferase reporter gene assay. The format is cell-based.

The structures appear in SMILES notation.

In general, EC50 refers to the concentration needed to bring the measured effect to its halfway point.

The compound `Fc1ccc(-c2csc3ncnc(NCc4ccc5c(c4)OCO5)c23)cc1` displayed an EC50 of 650 nM.

For the origin of these results see ChEMBL document CHEMBL4433197, “Nuclear Factor Erythroid 2-Related Factor 2 (Nrf2) Inhibition: An Emerging Strategy in Cancer Therapy” (J Med Chem, 2019).
